Laboratory results taken from patent US20240216352A1 (priority 2022, published 2024).
Values joined by “and” are separate entries in the source; they are usually repeats but may differ in a detail not shown here. Identical values can stand only once.

How the values were obtained:
participants with IPF [1] = assay: Phase 2 study, IPF cohort: efficacy (ppFVC, FVC); assay type: in vivo, human; details: for Efficacy versus PBO (ppFVC, FVC): Week 26, overall population with and without SoC; for Relative reduction in rate of decline in ppFVC vs PBO: Week 26, overall; for Slope difference in rate of decline in FVC, 60 mg - PBO: adjusted for age, gender, height
Protocol: (§1) A total of 278 participants with IPF were randomized and 276 participants were treated as of the final analyses data cut-off (4 Aug. 2022). Male and female participants […] with IPF and percent predicted forced vital capacity (ppFVC) […] and percent predicted DLCO (ppDLCO)≥25%; diagnosed within 7 years of screening; having a centrally-read chest HRCT obtained at screening that was consistent with UIP or probable UIP, or having a lung biopsy consistent with UIP, were eligible to enter the study. The mean baseline ppFVC for all subjects was 76.5%. In the primary IPF cohort, participants were randomized (1:1:1) to receive 30 mg or 60 mg Compound A or placebo (PBO) twice daily for 26 weeks. Participants were stratified by standard of care (SoC) IPF therapy (pirfenidone versus nintedanib versus none) and region (Japan versus Rest of World) at randomization.
The primary objective of the study was to determine the rate of change in ppFVC from baseline to Week 26. The primary objective was evaluated with a two estimand framework to handle the intercurrent event of dose reduction to 10 mg BID or matching PBO when pre-specified low BP criteria is met. The primary estimand is adopted to estimate treatment effect when dose reduction is implemented. The supplementary estimand is adopted to estimate the effect of treatment without dose reduction.
Analysis Strategy: The primary estimand was to evaluate the efficacy of Compound A at 30 mg or 60 mg twice daily, compared to PBO in IPF participants who met the enrollment criteria, with or without use of SoC. The rate of decline in ppFVC (%) from baseline to Week 26 was compared using the difference between each dose and PBO as a population level summary regardless of dose reduction or treatment discontinuation for any reason (treatment policy strategy).
Analysis Strategy: The supplementary estimand for the primary objective is to evaluate the efficacy of Compound A at 30 mg or 60 mg twice daily without dose reduction, compared to the PBO in IPF subjects who met the enrollment criteria, with or without use of SoC. The rate of decline in ppFVC (%) from baseline to Week 26 has been compared using the difference between each dose and PBO as a population level summary regardless of treatment discontinuation for any reason (treatment policy strategy). In the event of dose reduction, data collected after dose reduction will not be considered relevant to the treatment effect of interest and therefore, will be treated as missing (while-on-treatment strategy).

participants with IPF [2] = assay: Phase 2 study, IPF cohort: safety and blood pressure monitoring; assay type: in vivo, human; details: for Nadir post-dose mean reduction from baseline in sitting SBP: Day 1, 2 hours post-dose
Protocol: as §1
Patient experiences any of the following, confirmed by retest within 15 minutes: • Seated systolic blood pressure <85 mmHg • Seated diastolic blood pressure <55 mmHg • Orthostatic hypotension
Patient experiences symptoms that, in the investigator's opinion, could be associated with a reduction in blood pressure and also experiences at least one of the following, confirmed by retest within 15 minutes: • Seated systolic blood pressure <100 mmHg or seated diastolic blood pressure <60 mmHg • Decrease of seated systolic blood pressure of ≥20 mmHg from the previous visit or decrease of seated diastolic blood pressure of ≥10 mmHg from the previous visit • Orthostatic hypotension • Orthostatic tachycardia

[3] = 60 mg BID, baseline to Week 26, No SoC, supplementary estimand
[4] = 60 mg BID, baseline to Week 26, overall, primary estimand
[5] = 60 mg BID, baseline to Week 26, overall, supplementary estimand
[6] = Active Total (30 mg and 60 mg groups)

What does the source list for `CCCN(C)C(=O)OCc1c(-c2ccc(O[C@H]3CCC[C@H](C(=O)O)C3)c(C)n2)nnn1C` [Compound A, (1S,3S)-3-((2-methyl-6-(1-methyl-5-(((methyl(propyl)carbamoyl)-oxy)methyl)-1H-1,2,3-triazol-4-yl)pyridin-3-yl)oxy)cyclohexane-1-carboxylic acid]?
Acute exacerbations of lung fibrosis, patients (participants with IPF [1]; 30 mg BID): 3 n; Efficacy versus PBO (ppFVC, FVC) (participants with IPF [1]; 30 mg BID): did not demonstrate efficacy compared to PBO; Rate of change in ppFVC over 26 weeks (participants with IPF [1]; 30 mg BID, treatment policy strategy): −2.8%; Rate of change in ppFVC over 26 weeks (participants with IPF [1]; 30 mg BID, while-on-treatment strategy): −3.2%; Acute exacerbations of lung fibrosis, patients (participants with IPF [1]; 60 mg BID): 1 n; Relative treatment benefit in ppFVC decline vs PBO (participants with IPF [1]; 60 mg BID, Week 26, No SoC, primary estimand): 113%; Relative treatment benefit in ppFVC decline vs PBO (participants with IPF [1]; 60 mg BID, Week 26, No SoC, supplementary estimand): 123%; Relative treatment benefit in ppFVC decline vs PBO (participants with IPF [1]; 60 mg BID, Week 26, on background SoC, primary estimand): 39%; Relative treatment benefit in ppFVC decline vs PBO (participants with IPF [1]; 60 mg BID, Week 26, on background SoC, supplementary estimand): 44%; Efficacy versus PBO (ppFVC, FVC) (participants with IPF [1]; 60 mg BID): demonstrated favorable treatment responses versus PBO; Relative reduction in rate of decline in ppFVC vs PBO (participants with IPF [1]; 60 mg BID, primary estimand (treatment policy)): 54%; Relative reduction in rate of decline in ppFVC vs PBO (participants with IPF [1]; 60 mg BID, supplementary estimand (while-on-treatment)): 62%; Slope difference in rate of decline in ppFVC, 60 mg - PBO (participants with IPF [1]; 60 mg BID, baseline to Week 26, No SoC, primary estimand): 2.01±1.7% and 2.01%; Estimated rate of decline in ppFVC, slope (participants with IPF [1]; [3]): 0.471; Slope difference in rate of decline in ppFVC, 60 mg - PBO (participants with IPF [1]; [3]): 2.55±1.73% and 2.55%; Estimated rate of decline in ppFVC, slope (participants with IPF [1]; 60 mg BID, baseline to Week 26, SoC, supplementary estimand): −1.772; Slope difference in rate of decline in ppFVC, 60 mg - PBO (participants with IPF [1]; 60 mg BID, baseline to Week 26, on background SoC, primary estimand): 1.22±0.87% and 1.22%; Slope difference in rate of decline in ppFVC, 60 mg - PBO (participants with IPF [1]; 60 mg BID, baseline to Week 26, on background SoC, supplementary estimand): 1.41±0.89% and 1.41%; Slope of decline in FVC, 60 mg arm (participants with IPF [1]; [4]): -54.3 ± 20.76 mL; Slope difference in rate of decline in ppFVC, 60 mg - PBO (participants with IPF [1]; 60 mg BID, baseline to Week 26, overall, primary estimand (treatment policy)): 1.45±0.81% and 1.4% and 1.45%; Slope difference in rate of decline in FVC, 60 mg - PBO (participants with IPF [1]; [4]): 46.9 ± 29.14 mL and 46.9 mL; Estimated rate of decline in ppFVC, slope (participants with IPF [1]; [5]): −1.1% and −1.08%; Slope of decline in FVC, 60 mg arm (participants with IPF [1]; [5]): -47.2 ± 20.92 mL; Slope difference in rate of decline in ppFVC, 60 mg - PBO (participants with IPF [1]; 60 mg BID, baseline to Week 26, overall, supplementary estimand (while-on-treatment)): 1.77±0.82% and 1.8% and 1.77%; Slope difference in rate of decline in FVC, 60 mg - PBO (participants with IPF [1]; [5]): 61.4 mL; Posterior probability of a positive treatment difference vs placebo (Bayesian analysis) (participants with IPF [1]; 60 mg BID, under both estimand strategies): > 95%; Adjusted mean treatment difference in absolute change in FVC vs placebo (participants with IPF [1]; 60 mg BID, week 26): 45.5 mL; Dose reductions to 10 mg BID due to protocol-defined low BP criteria (participants with IPF [2]; 30 mg BID): 7 (7.7%) n (%) and 7 (7.7) n (%); Treatment discontinuations due to TEAEs (participants with IPF [2]; 30 mg BID): 9.9%; Asymptomatic low blood pressure (participants with IPF [2]; 30 mg BID (N = 91)): 22 (24.2%) n (%) and 22 (24.2) n (%); Orthostatic hypotension observed in asymptomatic low BP (participants with IPF [2]; 30 mg BID (N = 91)): 21 (23.1%) n (%) and 21 (23.1) n (%); Orthostatic hypotension observed in symptomatic low BP (participants with IPF [2]; 30 mg BID (N = 91)): 9 (9.9%) n (%) and 9 (9.9) n (%); Orthostatic intolerance (participants with IPF [2]; 30 mg BID (N = 91)): 10 (11.0%) n (%) and 10 (11.0) n (%); Subjects discontinuing study treatment due to a TEAE (participants with IPF [2]; 30 mg BID (N = 91)): 9 (9.9%) n (%) and 9 (9.9) n (%); Subjects who died (participants with IPF [2]; 30 mg BID (N = 91)): 4 (4.4%) n (%) and 4 (4.4) n (%); Subjects who died due to a TEAE (participants with IPF [2]; 30 mg BID (N = 91)): 3 (3.3%) n (%) and 3 (3.3) n (%); Subjects with at least one AESI (participants with IPF [2]; 30 mg BID (N = 91)): 18 (19.8%) n (%) and 18 (19.0) n (%); Subjects with at least one TEAE (participants with IPF [2]; 30 mg BID (N = 91)): 69 (75.8%) n (%) and 69 (75.8) n (%); Subjects with at least one TEAE related to the study treatment (participants with IPF [2]; 30 mg BID (N = 91)): 23 (25.3%) n (%) and 23 (25.3) n (%); Subjects with at least one TESAE (participants with IPF [2]; 30 mg BID (N = 91)): 10 (11.0%) n (%) and 10 (11.0) n (%); Symptomatic low blood pressure (participants with IPF [2]; 30 mg BID (N = 91)): 11 (12.1%) n (%) and 11 (12.1) n (%); Nadir post-dose mean reduction from baseline in sitting SBP (participants with IPF [2]; 30 mg): −10.5 mmHg; Dose reductions to 10 mg BID due to protocol-defined low BP criteria (participants with IPF [2]; 60 mg BID): 6 (6.5%) n (%) and 6 (6.5) n (%); Treatment discontinuations due to TEAEs (participants with IPF [2]; 60 mg BID): 6.5%; Asymptomatic low blood pressure (participants with IPF [2]; 60 mg BID (N = 93)): 17 (18.3%) n (%) and 17 (18.3) n (%); Orthostatic hypotension observed in asymptomatic low BP (participants with IPF [2]; 60 mg BID (N = 93)): 14 (15.1%) n (%) and 14 (15.1) n (%); Orthostatic hypotension observed in symptomatic low BP (participants with IPF [2]; 60 mg BID (N = 93)): 5 (5.4%) n (%) and 5 (5.4) n (%); Orthostatic intolerance (participants with IPF [2]; 60 mg BID (N = 93)): 2 (2.2%) n (%) and 2 (2.2) n (%); Subjects discontinuing study treatment due to a TEAE (participants with IPF [2]; 60 mg BID (N = 93)): 6 (6.5%) n (%) and 6 (6.5) n (%); Subjects who died (participants with IPF [2]; 60 mg BID (N = 93)): 5 (5.4%) n (%) and 5 (5.4) n (%); Subjects who died due to a TEAE (participants with IPF [2]; 60 mg BID (N = 93)): 4 (4.3%) n (%) and 4 (4.3) n (%); Subjects with at least one AESI (participants with IPF [2]; 60 mg BID (N = 93)): 9 (9.7%) n (%) and 9 (9.7) n (%); Subjects with at least one TEAE (participants with IPF [2]; 60 mg BID (N = 93)): 69 (74.2%) n (%) and 69 (74.2) n (%); Subjects with at least one TEAE related to the study treatment (participants with IPF [2]; 60 mg BID (N = 93)): 25 (26.9%) n (%) and 25 (26.9) n (%); Subjects with at least one TESAE (participants with IPF [2]; 60 mg BID (N = 93)): 10 (10.8%) n (%) and 10 (10.8) n (%); Symptomatic low blood pressure (participants with IPF [2]; 60 mg BID (N = 93)): 6 (6.5%) n (%) and 6 (6.5) n (%); Risk of orthostatic and low BP events compared to PBO (participants with IPF [2]; 60 mg twice daily (BID)): not associated with any increased risk of orthostatic intolerance, orthostatic hypotension, orthostatic tachycardia, or symptomatic or asymptomatic low BP; Nadir post-dose mean reduction from baseline in sitting SBP (participants with IPF [2]; 60 mg): −14.1 mmHg; Subjects discontinuing study treatment due to a TEAE (participants with IPF [2]; [6]): 15 (8.2) n (%); Subjects who died (participants with IPF [2]; [6]): 9 (4.9) n (%); Subjects who died due to a TEAE (participants with IPF [2]; [6]): 7 (3.8) n (%); Subjects with at least one AESI (participants with IPF [2]; [6]): 27 (14.7) n (%); Subjects with at least one TEAE (participants with IPF [2]; [6]): 138 (75.0) n (%); Subjects with at least one TEAE related to the study treatment (participants with IPF [2]; [6]): 48 (26.1) n (%); Subjects with at least one TESAE (participants with IPF [2]; [6]): 20 (10.9) n (%)
